From patent publication US6797721B2, “Phorboxazole derivatives for treating cancer” (Parker Hughes Institute, priority 1999, dated 2004)

Assays:
[1] = tested on: U373 human glioblastoma cells; assay: Clonogenic assay, U373; format: cell-based; settings: 7 days
Method: The growth-inhibiting activity of the synthetic Phorboxazole A and the synthesized derivatives was tested in clonogenic assays. Cancer cells were treated with 1 nM, 10 nM, and 100 nM doses of synthetic Phorboxazole A or derivatives of phorboxazole A. Treated cells included U373 human glioblastoma cells, NALM-6, human B-lineage acute lymphoblastic leukemia cells, and BT-20 human breast cancer cells. The cancer cells were resuspended in clonogenic medium consisting of alpha-MEM supplemented with 0.9% methylcellulose, 30% fetal bovine serum, and 50 μM 2-mercaptoethanol. Cells were plated in duplicate Petri dishes at 100,000 cells/mL/dish and cultured in a humidified 5% CO2 incubator for 7 days. Cancer cell colonies were enumerated on a grid using an inverted phase microscope of high optical resolution. Results were expressed as % inhibition of clonogenic cells at a particular concentration of the test agent using the formula:
% Inhibition=(1−Mean # of colonies [Test]/Mean # of colonies [Control]×100.

[2] = tested on: human breast cancer cell line BT-20; assay: In situ detection of apoptosis (nick-end-labeling, confocal microscopy); format: cell-based; settings: final concentration of 100 μM, 24 hours
Method: The synthetic Phorboxazole A and the synthetic analogs were also assayed for apoptosis-inducing activity. Assay for apoptosis was performed by the in situ nick-end-labeling method using an ApopTag in situ detection kit (Oncor, Gaithersburg, Md.) according to the manufacturer's reconmmendations. Immunofluorescence was used to examine the morphologic features of human breast cancer cell line BT-20 (American Type Culture Collection Rockville, Md.) treated with the novel phorboxazole A derivatives of the present invention.
Cells were trypsinized from rapidly growing tissue culture flasks and seeded onto sterile 22 mm^2 coverslips in 6-well culture plates. Cells on coverslips were returned to the incubator for 24 hours prior to treatment. The phorboxazole A derivatives were added to the cells from a stock solution made in DMSO to a final concentration of 100 μM. Final DMSO concentration were kept at 0.1% in both test samples and controls. Cells were returned to a 37° C. incubation for 24 hours before further processing. At 24 hours, coverslips were fixed in −20° C. methanol for 15 minutes followed by a 15 minute incubation in phosphate buffered saline +0.1% Triton X-100 (PBS-Tx). Coverslips were then incubated with a monoclonal antibody against α-tubulin (Sigma Chemical Co., St. Louis, Mo.) at a dilution of 1:1000 for 40 minutes in a humidified chamber at 37° C. Coverslips were washed for 15 minutes in PBS-Tx followed by a 40 minute incubation with goat anti-mouse IgG antibody conjugated to FITC (Amersham Corp., Arlington Heights, Ill.). The coverslips were again rinsed in PBS-Tx and incubated with 5 μM TOTO-3 (Molecular Probes, Eugene, Oreg.) for 20 minutes to label the nuclear DNA. Coverslips were immediately inverted onto slides in Vectashield (Vector Labs, Burlingame) to prevent photobleaching, sealed with nail varnish and stored at 4° C.
Slides were examined using a Bio-Rad MRC-1024 Laser Scanning Confocal Microscope mounted on a Nikon Eclipse E800 upright microscope with high numerical aperture objectives. […]

[3] = tested on: BT-20 human breast cancer cells; assay: MTT cytotoxicity assay, BT-20; format: cell-based; settings: BT-20 (breast cancer), 24-36 hours, read-out: IC50 [MTT]
Method: The cytotoxicity assay of synthetic Phorboxazole A and various derivative compounds against human tumor cells was performed using the MTT (3-[4,5-dimethylthiazol-2-yl]-2,5-diphenyl tetrazolium bromide) assay (Boehringer Mannheim Corp., Indianapolis, Ind.). Briefly, exponentially growing brain tumor cells were seeded into a 96-well plate at a density of 2.5×10^4 cells/well and incubated for 36 hours at 37° C. prior to drug exposure. On the day of treatment, culture medium was carefully aspirated from the wells and replaced with fresh medium containing the various phorboxazole A derivative compounds as well as the tyrosine kinase inhibitory isoflavone genistein (GEN) at concentrations ranging from 0.1 to 250 μM. Triplicate wells were used for each treatment.
Human glioblastoma cells U373 (brain cancer), human B-lineage acute lymphoblastic leukemia cells NALM-6, and human breast cancer cells BT-20 were obtained from American Type Culture Collection (Rockville, Md.) and maintained as a continuous cell line in Dulbecco's modified Eagles's medium supplemented with 10% fetal bovine serum and antibiotics.
The cells were incubated with the various compounds for 24-36 hours at 37° C. in a humidified 5% CO2 atmosphere. To each well, 10 μl of MTT (0.5 mg/ml final concentration) was added and the plates were incubated at 37° C. for 4 hours to allow MTT to form formazan crystals by reacting with metabolically active cells. The fonnazan crystals were solubilized overnight at 37° C. in a solution containing 10% SDS in 0.01 M HCl. The absorbance of each well was measured in a microplate reader (Labsystems) at 540 nm and a reference wavelength of 690 nm. To translate the OD540 values into the number of live cells in each well, the OD540 values were compared to those on standard OD540-versus-cell number curves generated for each cell line. The percent survival was calculated using the formula: [formula]
The IC50 values were calculated by non-linear regression analysis.

leukemia NALM-6 cells = assay: Mitochondrial transmembrane potential assay (DiIC1(5) staining); format: cell-based, human; settings: 2.5 nM, 5 nM or 10 nM, 72 hours
Method: FIG. 2 are graphs showing the effect of synthetic phorboxazole A and phorboxazole A derivatives on the mitochondrial transmembrane potentials of leukemia NALM-6 cells.
Cells were incubated with 2.5 nM, 5 nM or 10 nM of phorboxazole A, 33-O-methyl-phorboxazole A or 45,46-dehydrobromo-phorboxazole A for 72 hours, stained with DiICl (5) to assess the mitochondrial membrane potential (Δψm) and then analyzed with a cell sorter equipped with a HeNe laser.

With `C=C1C[C@@H]2C[C@@H]3C[C@@H](O)C[C@@H](O3)c3coc(n3)/C=C/C[C@H]3O[C@@H](/C(C)=C/c4coc(C[C@]5(O)C[C@H](OC)C[C@H]([C@H](O)/C=C(C)/C=C/[C@@H](C/C=C/Br)OC)O5)n4)[C@H](C)[C@@H](OC(=O)/C=C\C[C@@H](C1)O2)[C@H]3C` [Compound 1, Phorboxazole A] as the compound, how does the “Mean Number Colonies/10^4 cells” value ([1]; 10 nM) read?
Its value is 378.

What about the “Mean Number Colonies/10^4 cells” value ([1]; 100 nM) of the same compound?
Its value is 0.

And the inhibition at 0.01 µM ([1]; Homo sapiens, U373 MG, 168 h, 10 nM, read-out: Inhibition of clonogenic growth)?
Its inhibition at 0.01 µM is 42.4%.

What about the inhibition at 0.1 µM ([1]; Homo sapiens, U373 MG, 168 h, 100 nM, read-out: Inhibition of clonogenic growth) of the same compound?
The inhibition at 0.1 µM was > 99.9%.

And the Apoptosis-inducing activity [2]?
Its Apoptosis-inducing activity is “apoptotic activity”.

What about the IC50 [3] of the same compound?
The IC50 was 3.4 nM.

What about the “Depolarized mitochondria (mitochondrial membrane potential)” value (leukemia NALM-6 cells) of the same compound?
Its value is “progressive increase in depolarized mitochondria”.
